From patent US8642096B2, “Pharmaceutical composition containing herbal extract for prevention or treatment of nephritis” (Ahn-Gook Pharmaceutical Co., Ltd., priority 2009, dated 2014)
Values joined by “and” are separate entries in the source; they are usually repeats but may differ in a detail not shown here. Identical values can stand only once.

What was measured:
[1] = system: croton oil-induced ear edema; test: Mouse ear edema inhibition test (croton oil); type: in vivo, male ICR mouse; conditions: ear swelling thickness 4 hours after 2.5% croton oil, oral 20 mg/kg, 1 hour before
Procedure: To achieve active fraction and ingredient identification of herbal extracts, an activity-guided sub-fractionation was conducted by way of a mouse ear edema inhibition test. To evaluate the edema inhibitory effects of the MC, EA and BuOH fractions from the herbal extracts of Examples 1.2 and 1.3 and the three compounds identified above, an activity test was conducted according to a method by Hee Kee Kim et al. [Hee Kee Kim et al., Arch. Pharm. Res. 16(1), 1993, 18-24]. The positive control group received Indomethacin (purchased from Sigma) at a dosage of 20 mg/kg. The test group received 200 mg/kg of the MC, EA or BuOH fraction, or 20 mg/kg of the compound 1, 2 or 3. One hour after the oral administration, 2.5% croton oil (purchased from Sigma) was applied to the one ear of a male ICR mouse (7 weeks old, 28-32 g, Orient) to induce an acute inflammation. In 4 hours, the swelling of the ear was measured in terms of thickness.

[2] = system: gentamicin-induced nephritis model; test: Therapeutic effect of compounds 1-3 on gentamicin-induced nephritis model (Experimental Example 10); type: in vivo, male SD rats; conditions: for Creatinine / B.U.N.: 20 mg/kg; for Creatinine: negative control 1.32 ± 0.12, normal 0.45 ± 0.01; for B.U.N.: negative control 83.0 ± 5.1, normal 12.4 ± 0.6
Procedure: A normal group was subjected to the tests, where a nephritis-inducing factor, gentamicin (purchased from Whail Pharma. Co., Ltd.) was administered to male SD rats (7 weeks old, 195-205 g, Orient) at a dosage of 240 mg/kg for 6 days through an intraperitioneal injection to induce nephritis. Among the test rats with induced nephritis, the test groups other than the negative control group received the 2 test drugs of Example 2 or the test drug of Example 3.1 or 3.4 orally at a daily dosage of 400 mg/kg. The test rats were autopsied 7 days after the oral administrations. The blood samples collected were analyzed to detect blood urea nitrogen (B.U.N.) and creatinine.
To evaluate the therapeutic effect for nephritis of the three compounds of Experimental Example 9, the procedures were carried out in the same manner of Experimental Example 1 to measure the B.U.N and creatinine contents in the gentamicin-induced nephritis model. Reagents were the compounds 1, 2 and 3, which were the active fractions from the herbal extracts of Cinnamomi Cortex and Prunella Spica.

[3] = relative to negative control group

Row | SMILES | % Inhibition ([1]; 20 mg/kg) | Creatinine [2] [mg/dL] | B.U.N. [2] [mg/dL] | effect on blood urea nitrogen (B.U.N.) content [2, 3] | % Inhibition [1] [%] | % Inhibition ([1]; listed as positive control group, 20 mg/kg) [%] | effect on creatinine content [2, 3]
1 | O=c1ccc2ccccc2o1 [Compound 2, Coumarin] | 39% and 38.79% | 0.88 ± 0.06 | 50.9 ± 4.7 | showed an effect of reducing the blood urea nitrogen (B.U.N.) content | – | – | –
2 | O=C(/C=C/c1ccc(O)c(O)c1)O[C@H](Cc1ccc(O)c(O)c1)C(=O)O [Compound 3, Rosmarinic acid] | – | 0.97 ± 0.06 | 63.1 ± 7.2 | – | 28.90 | – | –
3 | COc1ccc2c(c1)c(CC(=O)O)c(C)n2C(=O)c1ccc(Cl)cc1 [Positive Control Group, Indomethacin, reference compound] | 38.81% | – | – | – | – | 39 | –
4 | O=C(O)C=Cc1ccccc1 [Compound 1, Cinnamic acid] | 42% and 42.40% | 0.81 ± 0.07 | 47.7 ± 5.7 | showed an effect of reducing the blood urea nitrogen (B.U.N.) content | – | – | reduced the creatinine content
